Assay results: US7282489B2, “Compositions and methods for performing reverse gene therapy” (The Children's Hospital of Philadelphia, priority 2000, dated 2007)

Experiments:
[1] = target: T1, channels formed with wild-type hMiRP1 (Homo sapiens, UniProt Q12809); test: Whole cell voltage clamp, HEK293 cells stably expressing HERG and wild type hMiRP1; assay type: cell-based; details: wild-type hMiRP1, activation at +20 mV, read-out: Dose causing half block of the peak outward currents
T1 construct: expressed in transfected cells; host or cells: HEK293 stably expressing HERG, stably co-transfected with pIRES2-EGFP-hMiRP1-FLAG
Method: (§1) Electrophysiology Methods: HEK293 cells that stably express HERG, but not hMiRP1 (Zhou, et al., 1999) were also stably co-transfected with either hMiRP1 or Q9E-hMiRP1 and subsequently were analyzed for channel function by single cell patch clamping using voltage clamp conditions. The data were analyzed at a sampling rate of 4 kHz and filtered at 1 kHz using Pclamp software version 6.0 (Axon Instruments, Foster City, Calif.). Leak correction was not performed, and therefore unaltered data are shown. All experiments were performed at 25° C. Protocols for steady-state activation and isochronal peak currents, and clarithromycin incubations were performed as described by Abbott et al., 1999. Initial studies were performed in buffer containing 95 mM KCl, 5 mM NaCl, 1 mM MgCl2, 0.3 mM CaCl2, and 10 mM HEPES (pH 7.6). For whole cell recordings, pipettes contained 100 mM KCl, 1 mM MgCl2, 10 mM HEPES, and 2 mM EGTA (pH 7.5). A 50 mM Clarithromycin (American Bioanalytical, Natick, Mass.) stock in DMSO was diluted in bath solution.

[2] = target: T2, Q9E-hMiRP1 channels (Homo sapiens, UniProt Q12809); test: Whole cell voltage clamp, HEK293 cells stably expressing HERG and Q9E-hMiRP1; assay type: cell-based; details: HEK293 cells overexpressing Q9E-hMiRP1, activation at +20 mV; read-out: Dose leading to half blockade of peak outward currents
T2 construct: expressed in transfected cells; host or cells: HEK293 stably expressing HERG, stably co-transfected with pIRES2-EGFP-Q9E-hMiRP1-FLAG
Method: as §1

[3] = target: T3, Q9E-hMiRP1 channels (Homo sapiens, UniProt Q12809+Q9Y6J6, Q9E); test: as above; assay type: cell-based
T3 construct: expressed in transfected cells; host or cells: HEK293 stably expressing HERG, stably co-transfected with pIRES2-EGFP-Q9E-hMiRP1-FLAG
Method: as §1

[4] = target: T3, Q9E-hMiRP1 channels; details: patch clamp studies, Abbott et al, 1999; cited from earlier work
[5] = system: re-entrant atrial flutter; test: Y-atriotomy model for re-entrant atrial flutter, burst atrial pacing; assay type: in vivo, dog; details: dogs systemically administered a dose of ibutilide equivalent to that provided by the polymer

T3 sequence (Q12809 whole entry): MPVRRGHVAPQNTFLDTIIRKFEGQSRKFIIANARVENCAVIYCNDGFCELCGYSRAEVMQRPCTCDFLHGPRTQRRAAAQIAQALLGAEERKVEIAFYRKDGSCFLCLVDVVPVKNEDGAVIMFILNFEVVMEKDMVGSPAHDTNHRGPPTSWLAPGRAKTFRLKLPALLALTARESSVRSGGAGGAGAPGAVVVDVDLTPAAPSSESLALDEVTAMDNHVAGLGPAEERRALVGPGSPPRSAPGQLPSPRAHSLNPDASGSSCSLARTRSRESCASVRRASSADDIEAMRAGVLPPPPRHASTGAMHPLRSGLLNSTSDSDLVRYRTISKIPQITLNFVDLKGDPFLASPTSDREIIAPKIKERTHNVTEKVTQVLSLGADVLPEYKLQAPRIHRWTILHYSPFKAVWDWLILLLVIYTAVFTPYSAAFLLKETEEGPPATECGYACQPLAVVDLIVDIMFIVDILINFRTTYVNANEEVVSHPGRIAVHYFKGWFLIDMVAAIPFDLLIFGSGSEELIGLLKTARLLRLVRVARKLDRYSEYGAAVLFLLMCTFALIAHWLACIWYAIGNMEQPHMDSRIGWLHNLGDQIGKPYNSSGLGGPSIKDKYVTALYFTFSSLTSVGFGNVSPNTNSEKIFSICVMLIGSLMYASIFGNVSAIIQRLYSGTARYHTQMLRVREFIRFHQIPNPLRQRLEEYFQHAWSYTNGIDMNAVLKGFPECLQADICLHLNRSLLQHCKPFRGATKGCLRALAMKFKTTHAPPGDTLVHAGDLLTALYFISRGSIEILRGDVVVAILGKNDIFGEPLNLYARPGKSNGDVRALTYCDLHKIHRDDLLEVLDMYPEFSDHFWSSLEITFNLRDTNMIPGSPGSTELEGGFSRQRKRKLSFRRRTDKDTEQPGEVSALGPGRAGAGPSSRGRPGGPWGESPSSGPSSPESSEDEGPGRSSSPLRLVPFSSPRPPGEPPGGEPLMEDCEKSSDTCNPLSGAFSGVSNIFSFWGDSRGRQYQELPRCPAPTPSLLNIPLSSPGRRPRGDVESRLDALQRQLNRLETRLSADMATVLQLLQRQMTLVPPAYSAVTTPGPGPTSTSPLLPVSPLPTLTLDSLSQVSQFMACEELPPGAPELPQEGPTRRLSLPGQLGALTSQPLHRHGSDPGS
T3 sequence (Q9Y6J6 whole entry Q9E): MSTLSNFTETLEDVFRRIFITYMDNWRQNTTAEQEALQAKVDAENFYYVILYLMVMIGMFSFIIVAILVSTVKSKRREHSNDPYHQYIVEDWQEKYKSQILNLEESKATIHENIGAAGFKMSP
T2 sequence (Q12809 whole entry): as the sequence (Q12809 whole entry) above
T2 sequence (Q9Y6J6 whole entry Q9E, further chain): as the sequence (Q9Y6J6 whole entry Q9E) above
T1 sequence (Q12809 whole entry): as the sequence (Q12809 whole entry) above
T1 sequence (Q9Y6J6 whole entry, further chain): as the sequence (Q9Y6J6 whole entry Q9E) above, with E9Q counted along it

Row | SMILES | IC50 [1] [µM] | IC50 [2] [µM] | Effect on I/I max with increased voltages ([3]; 1.0 mM clarithromycin, Q9E-hMiRP1 stable cells, groups of 4 cells) | Clarithromycin effect in Q9E-hMiRP1 cells relative to wild type hMiRP1 cells ([3]; HEK293 cells) | Effect on peak outward currents ([3]; HEK293 cells over-expressing Q9E-hMiRP1, whole cell voltage clamp) | Sensitivity of Q9E-hMiRP1 channels to clarithromycin induced diminution of potassium currents relative to wild type [4] [fold] | Inhibition of inducibility of atrial flutter [5]
1 | CC[C@H]1OC(=O)[C@H](C)[C@@H](O[C@H]2C[C@@](C)(OC)[C@@H](O)[C@H](C)O2)[C@H](C)[C@@H](O[C@@H]2O[C@H](C)C[C@H](N(C)C)[C@H]2O)[C@](C)(OC)C[C@@H](C)C(=O)[C@H](C)[C@@H](O)[C@]1(C)O [clarithromycin, Clarithromycin] | ~2000 | < 1000 | blocked increases in I/I max with increased voltages | many-fold greater | reduced peak outward currents | 3 | 
2 | CCCCCCCN(CC)CCCC(O)c1ccc(NS(C)(=O)=O)cc1 (stereo not shown) [ibutilide, Ibutilide] |  |  |  |  |  |  | No significant inhibition
